The text below walks through data of ChEMBL document CHEMBL3758167, “4H-Thieno[3,2-c]chromene based inhibitors of Notum Pectinacetylesterase” (Bioorg Med Chem Lett, 2016).

Data set [1] in a line: in vivo. Conditions: mouse, po, 10 mg/kg.
Data set [2] is described as follows: in vivo. Conditions: mouse, po, 10 mg/kg. This is another data set of the same source.
A short description of data set [3]: in vivo. Conditions: mouse, po, 10 mg/kg. This is another data set of the same source.
Data set [4] is described as follows: in vivo. Conditions: mouse, iv, 1 mg/kg.
The nature of data set [5]: in vivo. Conditions: mouse, iv, 1 mg/kg. The source holds these as a separate data set.

In turn, `O=C(O)c1cc2c(s1)-c1ccccc1CC2` returned a bioavailability in data set [1] of 52%. In data set [2], the AUC stood at 158 µM·h. The Cmax in data set [3] came out at 64 µM. This molecule displayed a clearance in data set [4] of 2.4 mL/min/kg. This molecule gave a distribution volume (Vd) in data set [5] of 0.57 L/kg.

In general, bioavailability refers to the share of a dose that reaches the circulation, judged against a reference dose that is usually intravenous. A higher bioavailability goes with good availability. As a reminder, the AUC is the area under the concentration-time curve, a measure of exposure. What is called Cmax is the peak of the concentration-time curve. As a reminder, the clearance is a measure of how efficiently the substance is removed, as volume per time. A lower clearance goes with a low capacity for elimination. Usually Vd stands for the apparent volume that relates the amount in the body to the concentration in plasma or blood. Low values mean confinement near the circulation, high ones extensive tissue distribution.
